How the values were obtained:
[1] = tested on: Arabidopsis thaliana; assay: SOA1 phenotypic analysis of herbicide-treated Arabidopsis (MIC, Tmic, leaf traits); assay type: in vivo; details: for characteristic morphological symptoms: SOA1, in words
[2] = tested on: Saccharomyces cerevisiae wild type strain BY4743; assay: AF1 yeast metabolite analysis by GC-MS and LC-MS after antifungal drug treatment; assay type: cell-based; also: test concentration or dose not given here
[3] = SOA1, numeric value standardized to mock treated

## O=C(O)COc1ccc(Cl)cc1Cl [2,4-D]
[1]; SOA1, coded score of time to full range of symptoms at MIC
  tMic (Dev.): 2
[1]; [3]
  leafCurling (Dev.): 1
  leafTwisting (Dev.): 2
  leafWidth (Dev.): −1
  matureLeafAnthocyanins (Dev.): 1
  matureLeafChlorosis (Dev.): 2
  matureLeafNecrosis (Dev.): 0
  newLeafAnthocyanins (Dev.): 0
  newLeafChlorosis (Dev.): 1
  newLeafNecrosis (Dev.): 0
  pointedLeaves (Dev.): 0
[1]; SOA1, three-week-old plants sprayed with herbicide, classes pictured in FIG. 12
  Symtom Class: 5

## O=C(O)c1cc(Oc2ccc(C(F)(F)F)cc2Cl)ccc1[N+](=O)[O-] [Acifluorfen]
[1]
  characteristic morphological symptoms: Necrotic leaf flecks

## CCNc1nc(Cl)nc(NC(C)C)n1 [Atrazine]
[1]
  characteristic morphological symptoms: rapid and widespread leaf necrosis

## CC(C)N1C(=O)c2ccccc2NS1(=O)=O [Bentazon]
[1]
  characteristic morphological symptoms: rapid and widespread leaf necrosis

## COC(=O)c1cc(Oc2ccc(Cl)cc2Cl)ccc1[N+](=O)[O-] [Bifenox]
[1]
  characteristic morphological symptoms: Necrotic leaf flecks

## OC(Cn1cncn1)(Cn1cncn1)c1ccc(F)cc1F [Fluconazole]
[2]; 4-aminobenzoic acid, pLC
  Fold Change: 0
[2]; 4-methylcatechol, nLC
  Fold Change: 0
[2]; 4-methylcatechol, pLC
  Fold Change: 0
[2]; 5hydroxyLtryptophan, nLC
  Fold Change: 0
[2]; 6-benzylaminopurine, nLC
  Fold Change: 0
[2]; 6benzylaminopurine, pLC
  Fold Change: 0
[2]; DL-aminoadipic acid, pLC
  Fold Change: 0.1155
[2]; DLaminoadipic acid, nLC
  Fold Change: 0.443
[2]; abscisic acid, nLC
  Fold Change: 0
[2]; abscisic acid, pLC
  Fold Change: 0
[2]; adenine, nLC
  Fold Change: 0
[2]; adenosine, nLC
  Fold Change: 0
[2]; allantoic acid, pLC
  Fold Change: 0
[2]; anthranilic acid, nLC
  Fold Change: 0
[2]; anthranilic acid, pLC
  Fold Change: 0
[2]; arginine, nLC
  Fold Change: 0.6484
[2]; arginine, pLC
  Fold Change: 0.1179
[2]; argininosuccinate, nLC
  Fold Change: 0
[2]; argininosuccinate, pLC
  Fold Change: 0
[2]; asparagine, GC
  Fold Change: 0.3999
[2]; asparagine, nLC
  Fold Change: 0.3545
[2]; asparagine, pLC
  Fold Change: 0.3192
[2]; aspartic acid, GC
  Fold Change: 0.4337
[2]; aspartic acid, pLC
  Fold Change: 0.214
[2]; aspartic, nLC
  Fold Change: 0.4993
[2]; benzoic acid, nLC
  Fold Change: 0
[2]; biotin, nLC
  Fold Change: 0.3455
[2]; biotin, pLC
  Fold Change: 0
[2]; caffeic acid, nLC
  Fold Change: −0.4711
[2]; caffeine, pLC
  Fold Change: 0
[2]; campesterol, GC
  Fold Change: 0
[2]; catechol, nLC
  Fold Change: 0
[2]; cinnamic acid, nLC
  Fold Change: 0
[2]; citric acid TME, pLC
  Fold Change: 0
[2]; citricanoic/itaconi, nLC
  Fold Change: 0
[2]; citrulline, nLC
  Fold Change: 0
[2]; citrulline, pLC
  Fold Change: 0.08252
[2]; coumaric acid, nLC
  Fold Change: 0
[2]; cytidine, nLC
  Fold Change: −0.7969
[2]; cytidine, pLC
  Fold Change: 0
[2]; cytosine, nLC
  Fold Change: 0
[2]; cytosine, pLC
  Fold Change: 0
[2]; decanoic acid, nLC
  Fold Change: 0.1846
[2]; desmosterol, GC
  Fold Change: 0
[2]; diaminopimelic acid, nLC
  Fold Change: 0
[2]; diaminopimelic acid, pLC
  Fold Change: 0
[2]; dihydrofolic acid, nLC
  Fold Change: 0
[2]; dihydrofolic acid, pLC
  Fold Change: 0
[2]; dipicolinic acid, pLC
  Fold Change: 0
[2]; disaccaride1, GC
  Fold Change: 0.3883
[2]; disaccaride2, GC
  Fold Change: 0.1517
[2]; disaccaride3, GC
  Fold Change: 0.5803
[2]; ergosterol, GC
  Fold Change: 0.948
[2]; estrone, nLC
  Fold Change: 0
[2]; farnesol, nLC
  Fold Change: 0
[2]; folic acid, nLC
  Fold Change: 0
[2]; folic acid, pLC
  Fold Change: 0
[2]; fucosterol, GC
  Fold Change: 6.665
[2]; fumaric/3m2oxobutan, nLC
  Fold Change: 0.6009
[2]; gallic acid, nLC
  Fold Change: 0.5071
[2]; gibberellic, nLC
  Fold Change: 0
[2]; glucosamine6PO4, nLC
  Fold Change: −0.9951
[2]; glucosamine6PO4, pLC
  Fold Change: 0
[2]; glucosamine, pLC
  Fold Change: 0
[2]; glutamate, pLC
  Fold Change: −0.06179
[2]; glutamic/acetylseri, nLC
  Fold Change: 0.3842
[2]; glutamine, GC
  Fold Change: 0.5242
[2]; glutamine/lysine, nLC
  Fold Change: 0.3309
[2]; glutamine/lysine, pLC
  Fold Change: 0.2242
[2]; glutathione, pLC
  Fold Change: −0.05832
[2]; glycanopyrose, GC
  Fold Change: 1.202
[2]; glycerol, GC
  Fold Change: 0.2187
[2]; glycine, GC
  Fold Change: −0.1037
[2]; guanine, nLC
  Fold Change: 0
[2]; guanosine, nLC
  Fold Change: −0.993
[2]; guanosine, pLC
  Fold Change: −0.9981
[2]; hexadecanoic acid, GC
  Fold Change: 0.1343
[2]; histidine, nLC
  Fold Change: 0
[2]; histidine, pLC
  Fold Change: 0
[2]; homogentisic/uric, nLC
  Fold Change: 0
[2]; hydrocortisone, nLC
  Fold Change: 0
[2]; hydrocortisone, pLC
  Fold Change: 0
[2]; hypoxanthine, nLC
  Fold Change: 0.7757
[2]; hypoxanthine, pLC
  Fold Change: 0.1298
[2]; indole3pyruvic acid, nLC
  Fold Change: 0
[2]; inostol/glucos/sorb, nLC
  Fold Change: −0.4744
[2]; iso citric acid, GC
  Fold Change: 0.3923
[2]; isocitric/citric/qu, nLC
  Fold Change: 1.457
[2]; isoleucine, GC
  Fold Change: 0.391
[2]; itaconic acid dimes, pLC
  Fold Change: 0
[2]; jasmonic acid, nLC
  Fold Change: 0
[2]; kinetin, nLC
  Fold Change: 0
[2]; kinetin, pLC
  Fold Change: 0
[2]; lactic acid, nLC
  Fold Change: −0.0439
[2]; lanosterol, GC
  Fold Change: 8.462
[2]; lauric acid, nLC
  Fold Change: 0.3906
[2]; leucine, GC
  Fold Change: 0.3387
